Patent US8318759B2, “Pyrrolidine derivatives as NK3 receptor antagonists” (Hoffmann-La Roche Inc., priority 2009, dated 2012)

How the values were obtained:
human NK3 receptor = target: T1, human NK3 receptor (Homo sapiens, UniProt P29371); test: [3H]SR142801 competition binding assay; details: membrane from HEK293 cells transiently expressing recombinant human NK3 receptor; radioligand [3H]SR142801; Ki from IC50 by Cheng-Prussoff equation
T1 construct: expressed in transfected cells; host or cells: HEK293 cells (transient expression), membranes
T1 sequence (P29371 1-465): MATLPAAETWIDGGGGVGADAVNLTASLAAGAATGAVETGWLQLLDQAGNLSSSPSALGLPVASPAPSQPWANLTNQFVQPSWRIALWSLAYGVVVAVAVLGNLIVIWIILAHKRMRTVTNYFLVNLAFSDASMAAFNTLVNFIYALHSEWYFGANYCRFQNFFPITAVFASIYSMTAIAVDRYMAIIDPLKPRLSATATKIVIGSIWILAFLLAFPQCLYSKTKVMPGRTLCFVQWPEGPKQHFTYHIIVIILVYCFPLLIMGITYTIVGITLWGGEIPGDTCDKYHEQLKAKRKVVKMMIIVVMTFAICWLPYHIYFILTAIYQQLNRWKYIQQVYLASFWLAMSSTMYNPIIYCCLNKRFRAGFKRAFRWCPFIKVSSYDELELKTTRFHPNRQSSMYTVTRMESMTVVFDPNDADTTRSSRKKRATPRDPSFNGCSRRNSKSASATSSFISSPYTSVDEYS
Protocol: [^3H]SR142801 Competition Binding Assay
hNK3 receptor binding experiment were performed using [^3H]SR142801 (Catalog No. TRK1035, specific activity: 74.0 Ci/mmol, Amersham, GE Healthcare UK limited, Buckinghamshire, UK) and membrane isolated from HEK293 cells transiently expressing recombinant human NK3 receptor. After thawing, the membrane homogenates were centrifuged at 48,000×g for 10 min at 4° C., the pellets were resuspended in the 50 mM Tris-HCl, 4 mM MnCl2, 1 μM phosphoramidon, 0.1% BSA binding buffer at pH 7.4 to a final assay concentration of 5 μg protein/well. […] At the end of the incubation, membranes were filtered onto unitfilter (96-well white microplate with bonded GF/C filter preincubated 1 h in 0.3% PEI+0.3% BSA, Packard BioScience, Meriden, Conn.) with a Filtermate 196 harvester (Packard BioScience) and washed 4 times with ice-cold 50 mM Tris-HCl, pH 7.4 buffer. Nonspecific binding was measured in the presence of 10 μM SB222200 for both radioligands. The radioactivity on the filter was counted (5 min) on a Packard Top-count microplate scintillation counter with quenching correction after addition of 45 μl of microscint 40 (Canberra Packard S. A., Zürich, Switzerland) and shaking for 1 h. Inhibition curves were fitted according to the Hill equation: y=100/(1+(x/IC50)^nH), where nH=slope factor using Excel-fit 4 software (Microsoft). IC50 values were derived from the inhibition curve and the affinity constant (Ki) values were calculated using the Cheng-Prussoff equation Ki=IC50/(1+[L]/KD) where [L] is the concentration of radioligand and KD is its dissociation constant at the receptor, derived from the saturation isotherm. All experiments were performed in duplicate and the mean±standard error (SEM) of the individual Ki values was calculated.

[1] = phase II trial, cited from earlier work

| Ki (human NK3 receptor) [µM] | SMILES | activity on positive symptoms of schizophrenia ([1]; altered behavior, delusion, hallucinations, extreme emotions, excited motor activity, incoherent speech) | activity in the treatment of negative symptoms of schizophrenia ([1]; depression, anhedonia, social isolation, memory and attention deficits) |
| --- | --- | --- | --- |
| 0.0012 | Cc1cc(C(=O)N2C[C@H](CNc3ncc(C(F)(F)F)cn3)[C@@H](c3ccc(Cl)c(Cl)c3)C2)cnn1 [Example 58, {(3S,4S)-3-(3,4-Dichloro-phenyl)-4-[(5-trifluoromethyl-pyrimidin-2-ylamino)-methyl]-pyrrolidin-1-yl}-(6-methyl-pyridazin-4-yl)-methanone] |  |  |
| 0.0023 | CN(C[C@H]1CN(C(=O)C2CCN(C(=O)C3(C)CC3)CC2)C[C@@H]1c1ccc(Cl)c(Cl)c1)c1ncc(C(F)(F)F)cn1 [Example 59, ((3S,4S)-3-(3,4-Dichloro-phenyl)-4-{[methyl-(5-trifluoromethyl-pyrimidin-2-yl)-amino]-methyl}-pyrrolidin-1-yl)-[1-(1-methyl-cyclopropanecarbonyl)-piperidin-4-yl]-methanone] |  |  |
| 0.0158 | Cc1cc(C(=O)N2C[C@H](CN(C)c3ncc(C(F)(F)F)cn3)[C@@H](c3ccc(Cl)c(Cl)c3)C2)cnn1 [Example 60, ((3S,4S)-3-(3,4-Dichloro-phenyl)-4-{[methyl-(5-trifluoromethyl-pyrimidin-2-yl)-amino]-methyl}-pyrrolidin-1-yl)-(6-methyl-pyridazin-4-yl)-methanone] |  |  |
| 0.0084 | CN(C[C@H]1CN(C(=O)C2CCN(C(=O)C3(C)CC3)CC2)C[C@@H]1c1ccc(Cl)c(Cl)c1)c1ccc(C(F)(F)F)cn1 [Example 62, [4-((3S,4S)-3-(3,4-Dichloro-phenyl)-4-{[methyl-(5-trifluoromethyl-pyridin-2-yl)-amino]-methyl}-pyrrolidine-1-carbonyl)-piperidin-1-yl]-(1-methyl-cyclopropyl)-methanone] |  |  |
| 0.0318 | CN(C[C@H]1CN(C(=O)C2CCN(C(=O)C3(C)CC3)CC2)C[C@@H]1c1ccc(Cl)c(Cl)c1)c1ccc(C#N)cn1 [Example 64, 6-({(3S,4S)-4-(3,4-Dichloro-phenyl)-1-[1-(1-methyl-cyclopropanecarbonyl)-piperidine-4-carbonyl]-pyrrolidin-3-ylmethyl}-methyl-amino)-nicotinonitrile] |  |  |
| 0.047 | CN(C[C@H]1CN(C(=O)C2CCN(C(=O)C3(C)CC3)CC2)C[C@@H]1c1ccc(Cl)c(Cl)c1)c1ccc(Cl)cn1 [Example 66, {4-[(3S,4S)-3-{[(5-Chloro-pyridin-2-yl)-methyl-amino]-methyl}-4-(3,4-dichloro-phenyl)-pyrrolidine-1-carbonyl]-piperidin-1-yl}-(1-methyl-cyclopropyl)-methanone] |  |  |

Continued, compound first:

| SMILES | Ki (human NK3 receptor) [µM] | activity on positive symptoms of schizophrenia ([1]; altered behavior, delusion, hallucinations, extreme emotions, excited motor activity, incoherent speech) | activity in the treatment of negative symptoms of schizophrenia ([1]; depression, anhedonia, social isolation, memory and attention deficits) |
| --- | --- | --- | --- |
| CS(=O)(=O)N1CCN(C(=O)N2C[C@H](CNc3ccc(C(F)(F)F)cn3)[C@@H](c3ccc(Cl)c(Cl)c3)C2)CC1 [Example 13, (3S,4S)-{3-(3,4-Dichloro-phenyl)-4-[(5-trifluoromethyl-pyridin-2-ylamino)-methyl]-pyrrolidin-1-yl}-(4-methanesulfonyl-piperazin-1-yl)-methanone] | 0.0066 |  |  |
| CS(=O)(=O)N1CCN(C(=O)N2C[C@@H](CNc3ccc(C(F)(F)F)cn3)[C@H](c3ccc(Cl)c(Cl)c3)C2)CC1 [Example 14, (3R,4R)-{3-(3,4-Dichloro-phenyl)-4-[(5-trifluoromethyl-pyridin-2-ylamino)-methyl]-pyrrolidin-1-yl}-(4-methanesulfonyl-piperazin-1-yl)-methanone] | 0.0924 |  |  |
| CN(C[C@H]1CN(C(=O)C2CCN(C(=O)C3(C)CC3)CC2)C[C@@H]1c1ccc(Cl)cc1)c1ccc(C#N)cn1 [Example 51, 6-({(3S,4S)-4-(4-Chloro-phenyl)-1-[1-(1-methyl-cyclopropanecarbonyl)-piperidine-4-carbonyl]-pyrrolidin-3-ylmethyl}-methyl-amino)-nicotinonitrile] | 0.0699 |  |  |
| CN(C[C@H]1CN(C(=O)C2CCN(C(=O)C3(C)CC3)CC2)C[C@@H]1c1ccc(Cl)cc1)c1ccc(C(F)(F)F)cn1 [Example 53, [4-((3S,4S)-3-(4-Chloro-phenyl)-4-{[methyl-(5-trifluoromethyl-pyridin-2-yl)-amino]-methyl}-pyrrolidine-1-carbonyl)-piperidin-1-yl]-(1-methyl-cyclopropyl)-methanone] | 0.0856 |  |  |
| CN(C[C@H]1CN(C(=O)C2CCN(C(=O)C3(C)CC3)CC2)C[C@@H]1c1ccc(Cl)cc1)c1ncc(C(F)(F)F)cn1 [Example 55, ((3S,4S)-3-(4-Chloro-phenyl)-4-{[methyl-(5-trifluoromethyl-pyrimidin-2-yl)-amino]-methyl}-pyrrolidin-1-yl)-[1-(1-methyl-cyclopropanecarbonyl)-piperidin-4-yl]-methanone] | 0.0429 |  |  |
| CC1(C(=O)N2CCC(C(=O)N3C[C@H](CNc4ncc(C(F)(F)F)cn4)[C@@H](c4ccc(Cl)c(Cl)c4)C3)CC2)CC1 [Example 57, {(3S,4S)-3-(3,4-Dichloro-phenyl)-4-[(5-trifluoromethyl-pyrimidin-2-ylamino)-methyl]-pyrrolidin-1-yl}-[1-(1-methyl-cyclopropanecarbonyl)-piperidin-4-yl]-methanone] | 0.0018 |  |  |
| CC(=O)N(C)C1(c2ccccc2)CCN(CCC[C@]2(c3ccc(Cl)c(Cl)c3)CCCN(C(=O)c3ccccc3)C2)CC1 [SR 142,801, Osanetant] |  | active | inactive |
